From PMC8131363 (Scientific Reports, 2021)
Structures can show the parent of a compound that is named as a salt.

What was measured:
[1] = biological target: domestic cat Calcium Sensing Receptor (cCaSR) (Felis catus)
cCaSR [2] = biological target: T1, cCaSR (Felis catus, UniProt C7FF08); test: cell-based
T1 sequence (C7FF08 1-1081): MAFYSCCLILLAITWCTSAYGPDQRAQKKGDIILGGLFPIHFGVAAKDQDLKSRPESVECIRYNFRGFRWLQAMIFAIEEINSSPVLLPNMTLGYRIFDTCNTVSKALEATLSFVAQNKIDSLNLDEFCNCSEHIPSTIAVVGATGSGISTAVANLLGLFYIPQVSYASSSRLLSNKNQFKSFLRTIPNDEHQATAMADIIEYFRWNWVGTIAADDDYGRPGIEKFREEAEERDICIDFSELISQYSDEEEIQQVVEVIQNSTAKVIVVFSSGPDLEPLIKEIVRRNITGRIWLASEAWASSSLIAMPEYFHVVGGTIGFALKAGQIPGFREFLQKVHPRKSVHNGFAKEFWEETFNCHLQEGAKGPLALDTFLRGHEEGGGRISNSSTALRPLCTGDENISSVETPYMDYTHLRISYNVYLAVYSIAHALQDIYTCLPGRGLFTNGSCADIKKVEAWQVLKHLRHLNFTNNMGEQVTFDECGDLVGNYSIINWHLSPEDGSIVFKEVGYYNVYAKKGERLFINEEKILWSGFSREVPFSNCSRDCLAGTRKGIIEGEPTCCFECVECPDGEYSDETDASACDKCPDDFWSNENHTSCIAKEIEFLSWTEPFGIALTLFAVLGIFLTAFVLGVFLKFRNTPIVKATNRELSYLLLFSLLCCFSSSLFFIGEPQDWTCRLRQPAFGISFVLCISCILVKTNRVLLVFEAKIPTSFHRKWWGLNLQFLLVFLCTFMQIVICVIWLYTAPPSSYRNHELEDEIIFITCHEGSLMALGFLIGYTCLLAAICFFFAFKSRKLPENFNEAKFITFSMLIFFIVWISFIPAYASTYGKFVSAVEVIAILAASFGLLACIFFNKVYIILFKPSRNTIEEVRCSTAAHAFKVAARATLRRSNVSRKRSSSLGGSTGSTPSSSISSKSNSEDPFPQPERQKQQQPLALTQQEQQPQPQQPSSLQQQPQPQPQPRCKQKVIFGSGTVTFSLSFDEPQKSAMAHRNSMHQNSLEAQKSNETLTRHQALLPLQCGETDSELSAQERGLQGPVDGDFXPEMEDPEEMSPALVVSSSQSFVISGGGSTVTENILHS

cCaSR [3] = biological target: T1, cCaSR; test: cCaSR PAM luminescence assay, double injection with 0.5 mM CaCl2, HEK293/T-REx/natClytin-cCaSR; settings: Supplementary Table I, PAM assay, dash = no activity
cCaSR [4] = biological target: T1, cCaSR
[5] = cCaSR activity, agonist assay, stable inducible cCaSR line, at least three wells
[6] = EC50 (M), agonist assay, stable inducible cCaSR line, > 0.01 M = maximal response not reached
[7] = EC50 Ago (M), Supplementary Table I, agonist assay, > 0.01 M = maximal response not reached

Compound | EC50 of agonist activity, luminescence (natClytin) in HEK T-Rex/natClytin cells inducibly expressing cCaSR, calcium-free buffer; activity grade ++ [1] | EC50 (cCaSR [2]; [5]) | EC50 PAM (M) (cCaSR [3]) | agonist activity on cCaSR (in words) (cCaSR [4]) | EC50 Ago (M) (cCaSR [4]; Supplementary Table I, agonist assay, dash = no activity) | EC50 (cCaSR [2]; [6]) | EC50 (cCaSR [2]; [7]) | EC50 (cCaSR [2]; EC50 Value (heat map Fig. 5), cCaSR agonists, heat map)
3-Glutathionyl-S-methylindole (peptide) | 3.74 mM |  |  |  |  |  |  | 
NC[C@H]1O[C@H](O[C@H]2[C@H](O[C@@H]3O[C@H](CO)[C@@H](O)[C@H]3O)[C@@H](O)[C@H](N)C[C@@H]2N)[C@H](N)[C@@H](O)[C@@H]1O [Ribostamycin sulfate salt, reference compound] |  | > 0.01 M | - |  |  |  |  | 
C[Se]C[C@H](N)C(=O)O [Se-(Methyl)selenocysteine] |  | 0.001 to 0.01 M | - | agonist activity |  | 0.00447 M | 0.00447 M | 
CN[C@@H]1[C@@H](O)[C@@H](O[C@@H]2[C@@H](O)[C@H](O[C@H]3OC(CN)=CC[C@H]3N)[C@@H](N)C[C@H]2N)OC[C@]1(C)O [Sisomicin sulfate salt, reference compound] |  |  | - |  |  | 0.000299 M | 0.0003 M | 
N[C@@H](CC(=O)N[C@@H](Cc1ccccc1)C(=O)O)C(=O)O [β-Asp-Phe] |  | > 0.01 M | - |  |  |  |  | 
N[C@H](CCC(=O)N[C@@H](Cc1c[nH]c2ccccc12)C(=O)O)C(=O)O [γ-D-Glu-Trp] |  |  | - |  |  | 0.0042 M |  | 
N[C@@H](CCC(=O)N[C@@H](CS)C(=O)O)C(=O)O [γ-Glu-Cys] |  | > 0.01 M | - |  |  |  |  | 
NC(=O)CC[C@H](NC(=O)CC[C@H](N)C(=O)O)C(=O)O [γ-Glu-Gln] |  | > 0.01 M | - |  |  |  |  | 
N[C@@H](CCC(=O)NCC(=O)O)C(=O)O [γ-Glu-Gly] |  | > 0.01 M | - |  |  |  |  | 
CC(C)C[C@H](NC(=O)CC[C@H](N)C(=O)O)C(=O)O [γ-Glu-Leu] |  | > 0.01 M | - |  |  |  |  | 
CSCC[C@H](NC(=O)CC[C@H](N)C(=O)O)C(=O)O [γ-Glu-Met] |  | > 0.01 M | - |  |  |  |  | 0.00687 M
N[C@@H](CCC(=O)N[C@@H](Cc1c[nH]c2ccccc12)C(=O)O)C(=O)O [γ-Glu-Trp] |  | > 0.01 M | - |  |  |  |  | 

More lines, now with the values ahead:

EC50 of agonist activity, luminescence (natClytin) in HEK T-Rex/natClytin cells inducibly expressing cCaSR, calcium-free buffer; activity grade ++ [1] | EC50 (cCaSR [2]; [5]) | EC50 PAM (M) (cCaSR [3]) | agonist activity on cCaSR (in words) (cCaSR [4]) | EC50 Ago (M) (cCaSR [4]; Supplementary Table I, agonist assay, dash = no activity) | EC50 (cCaSR [2]; [6]) | EC50 (cCaSR [2]; [7]) | EC50 (cCaSR [2]; EC50 Value (heat map Fig. 5), cCaSR agonists, heat map) | Compound
 | > 0.01 M | - | agonist activity |  |  |  |  | COC(=O)C(N)CC(=O)O (racemic) [DL-Aspartic acid α-methyl ester]
 | > 0.01 M | - |  | - |  |  |  | NC(CCCCC(=O)O)C(=O)O (centres unmarked) [2-Aminopimelic acid]
 | > 0.01 M | - | agonist activity |  |  |  |  | COC(=O)C[C@H](N)C(=O)O [L-Aspartic acid β-methyl ester hydrochloride]
 | 0.001 to 0.01 M | - | agonist activity |  | 0.00234 M | 0.00234 M |  | N[C@@H](CS(=O)(=O)O)C(=O)O [L-Cysteic acid monohydrate]
 | > 0.01 M | - | agonist activity |  |  |  |  | NC(=O)[C@@H](N)CCC(=O)O [L-Isoglutamine]
 | > 0.01 M | - | agonist activity |  |  |  |  | N[C@@H](Cc1ccc(OP(=O)(O)O)cc1)C(=O)O [O-Phospho-L-tyrosine]
 | 0.001 to 0.01 M | - |  |  | 0.00211 M | 0.0021 M |  | N[C@@H](CCC(=O)N[C@@H](CSCCO)C(=O)NCC(=O)O)C(=O)O [S-(2-Hydroxyethyl)glutathione]
 | 0.001 to 0.01 M | - |  |  | 0.00442 M | 0.00442 M |  | CSC[C@H](NC(=O)CC[C@H](N)C(=O)O)C(=O)NCC(=O)O [S-Methylglutathione]
 | > 0.01 M | - |  |  |  |  |  | C[C@H](NC(=O)C[C@H](N)C(=O)O)C(=O)O [β-Asp-Ala]
 | > 0.01 M | - |  |  |  |  |  | N[C@@H](CC(=O)NCC(=O)O)C(=O)O [β-Asp-Gly]
 | > 0.01 M | - |  |  |  | > 0.01 M |  | CC(C)C[C@H](NC(=O)C[C@H](N)C(=O)O)C(=O)O [β-Asp-Leu]
 | 0.001 to 0.01 M | - |  |  | 0.00207 M | 0.00206 M |  | N[C@@H](CCC(=O)N[C@@H](CCC(=O)O)C(=O)O)C(=O)O [γ-Glu-Glu]
 | 0.001 to 0.01 M | - |  |  | 0.00232 M |  |  | N[C@@H](CCC(=O)N[C@@H](Cc1ccccc1)C(=O)O)C(=O)O [γ-Glu-Phe]
 | 0.001 to 0.01 M | - |  |  | 0.00388 M | 0.00388 M |  | N[C@@H](CCC(=O)N[C@@H](Cc1ccc(O)cc1)C(=O)O)C(=O)O [γ-Glu-Tyr]
